# Measurements taken from patent publication US10888536B1, “Method of improvement of insulin sensitivity in obese patients” (FOOYIN UNIVERSITY, priority 2019, dated 2021).
# Tests used:
# [1] = system: obese rats; experiment: Oral glucose tolerance test (OGTT) in high fat diet obese rats (Trial D); assay type: in vivo, Wistar male rats
# Experimental: (§1) Wistar male rats were used as the animal model in Trial (D). […] The obese rats of group D1 were then fed by the high fat diet without propanamide for another 4 weeks (total 23 weeks), while the obese rats of group D2 and D3 were fed by the high fat diet respectively containing 1 ppm and 3 ppm propanamide for further 4 weeks, The normal rats of group D0 were fed by normal diet for 23 weeks (total 23 weeks). At the 22th week, the oral glucose tolerance tests (OGTT) were performed as following: the rats of groups D0-D3 were fasted for 18 hours, and then were administered a 20% glucose solution (2 g glucose/kg body weight) by gavage. Blood samples were collected and the glucose concentrations were detected at 0, 30, 60, 90, and 120 minutes after glucose loading.
# [2] = system: obese mice; experiment: Fasting blood glucose in high fat diet obese mice (Trial C); assay type: in vivo, Male ICR mice; conditions: high fat diet containing 3 ppm propanamide for 2 weeks (group C2), fasted 18 hours (FIG. 5)
# Text: Male ICR mice were used as the animal model in Trial (C). […] The obese mice of group C1 were then fed by the high fat diet for another 2 weeks, while the obese mice of group C2 were fed by the high fat diet containing 3 ppm propanamide for further 2 weeks. The normal mice of group C0 were fed by normal diet for 19 weeks. After 19 weeks, the mice of groups C0-C2 were sacrificed, and the effect of propanamide on reducing the accumulation of visceral fat was estimated by weight of epididymal fat (% of body weight). Before being sacrificed, the mice of groups C0-C2 were fasted for 18 hours, and the levels of fasting blood glucose of the mice were measured. Referring to FIG. 5, the levels of fasting blood glucose of the obese mice fed by the high fat diet (group C1) were higher than that of the normal mice fed by the normal diet (group C0).
# [3] = system: mouse macrophage (J774A.1 cell line); experiment: ATP level in J774A.1 cells by ATP luminometer (Trial A); assay type: cell-based
# Experimental: To evaluate propanamide can increase of ATP synthesis, mouse macrophage (J774A.1 cell line) was used as the cell model. The J774A.1 cells without treatment were used as group A0. ATP level in the J774A.1 cells of groups A0-A5 were analyzed by ATP luminometer, respectively. The unit of ATP level is relative light unit (R.L.U).
# [4] = system: TNF-α; experiment: TNF-α level in medium of J774A.1 cells with or without LPS (Trial B); assay type: cell-based, mouse
# Experimental: The increase of cellular ATP can change the activity of macrophage, inhibiting the production of the proinflammatory cytokine, TNF-α, as well as the inflammation. After 15 minutes, 200 ng/ml lipopolysaccharide (LPS) was used to induce the inflammation in the J774A.1 cells of groups B1, B3 and B5. The medium of the J774A.1 cells was collected, and the TNF-α level in the medium was detected by a commercial kit.
# [5] = system: obese rats; experiment: Fasting serum insulin in high fat diet obese rats (Trial D); assay type: in vivo, Wistar male rats; conditions: 1 and 3 ppm propanamide in high fat diet for 4 weeks (groups D2 and D3), fasted 18 hours, 23rd week (FIG. 7)
# Experimental: as §1, with “loading. At 23th week, the rats of groups D0-D3 were fasted for 18 hours before scarification, and the serum were analyzed the level of insulin.” for “loading.”
smiles,measurement,setting,value
CCC(N)=O [propanamide],area under curve (AUC) of blood glucose in OGTT,[1]; 1 and 3 ppm propanamide in high fat diet (groups D2 and D3) (FIG. 6b),decreased significantly
same,blood glucose during OGTT vs group D1,"[1]; 1 ppm and 3 ppm propanamide in high fat diet (groups D2 and D3), 120 minutes after glucose loading (FIG. 6a)",significantly lower
same,blood glucose in untreated obese rats (group D1) relative to group D2 during OGTT,"[1]; 1 ppm propanamide in high fat diet (group D2), 90 minutes to 120 minutes after glucose loading (FIG. 6a)",evidently higher
same,levels of fasting blood glucose,[2],decreased significantly
same,dose dependence of ATP production,"[3]; concentration below 4 μM, 6 hours (FIG. 2)",dose-dependent response
same,ATP level in the J774A.1 cells,"[3]; propanamide 0.04-400 μM, 6 hours, vs untreated cells (FIG. 2)",effectively elevate ATP level
same,production of TNF-α not induced by LPS,"[4]; propanamide 4 and 40 μM (groups B2 and B4), no LPS (FIG. 3)",also inhibit the production of TNF-α
same,production of TNF-α induced by LPS,"[4]; propanamide 4 and 40 μM (groups B3 and B5), 200 ng/ml LPS after 15 minutes (FIG. 3)",effectively inhibit the production of TNF-α induced by LPS
same,fasting serum insulin,[5],reduced to normal level
